15 compounds from patent US20250268903A1, “RXFP1 AGONISTS” (BRISTOL-MYERS SQUIBB COMPANY, priority 2021, published 2025) can be followed below.

What is called EC50 is the concentration giving half of the maximal effect.

The target in this assay is T1, human RXFP1 (Homo sapiens, UniProt Q9HBX9).
T1 construct: expressed in transfected cells
T1 sequence (Q9HBX9 1-757): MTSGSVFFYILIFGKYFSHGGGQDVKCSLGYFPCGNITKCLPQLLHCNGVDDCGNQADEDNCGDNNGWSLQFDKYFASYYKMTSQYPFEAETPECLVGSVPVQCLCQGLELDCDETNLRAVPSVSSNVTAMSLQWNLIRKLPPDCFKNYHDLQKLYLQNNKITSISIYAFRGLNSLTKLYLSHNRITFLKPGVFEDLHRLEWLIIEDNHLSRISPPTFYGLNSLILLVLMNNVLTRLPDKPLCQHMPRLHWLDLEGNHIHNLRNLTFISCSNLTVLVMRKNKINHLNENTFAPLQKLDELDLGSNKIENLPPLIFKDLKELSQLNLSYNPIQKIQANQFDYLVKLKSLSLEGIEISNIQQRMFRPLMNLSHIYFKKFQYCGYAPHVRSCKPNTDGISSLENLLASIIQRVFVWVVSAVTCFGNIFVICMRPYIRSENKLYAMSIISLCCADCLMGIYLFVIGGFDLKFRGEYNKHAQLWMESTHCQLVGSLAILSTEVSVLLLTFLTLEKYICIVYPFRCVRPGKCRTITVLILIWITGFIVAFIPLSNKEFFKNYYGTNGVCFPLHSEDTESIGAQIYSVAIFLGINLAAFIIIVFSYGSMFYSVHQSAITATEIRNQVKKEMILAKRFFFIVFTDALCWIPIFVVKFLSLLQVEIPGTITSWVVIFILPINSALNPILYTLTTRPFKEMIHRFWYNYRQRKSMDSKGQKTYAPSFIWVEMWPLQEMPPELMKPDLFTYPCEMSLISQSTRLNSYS
Put plainly: hRXFP1 HEK293 cAMP assay (HTRF). Type of assay: cell-based. The note with it: HEK293 cells stably expressing human RXFP1, 30 min at room temperature. Put shortly:
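Intracellular cAMP was read by HTRF, with potency fitted to a 4-parameter logistic curve. Compound exposure (0.010 nM–50 μM final, 2% DMSO) lasted 30 min at room temperature. Cells were hRXFP1-HEK293 at 1500 per well in IBMX-containing (0.5 mM) HEPES-buffered HBSS.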
Background: cAMP levels reflect the balance of adenylyl cyclase and phosphodiesterase activity.
For `COc1ccc(CCCCCO)cc1C(=O)N[C@@H]1C2CCC(/C2=C/C(F)(F)F)[C@@H]1C(=O)Nc1ccc(F)c(C(F)(F)F)c1` (stereo partly drawn) [Example 97, (2S,3R,7Z)-N-[4-fluoro-3-(trifluoromethyl)phe-nyl]-3-[5-(5-hydroxypentyl)-2-methoxybenzamido]-7-(2,2,2-trifluoroethylidene)bi-cyclo[2.2.1]heptane-2-carboxamide], the midpoint of the response, the EC50, lay at 82 nM.

As for `C#Cc1ccc(OC)c(C(=O)N[C@@H]2C3CCC(/C3=C/C(F)(F)F)[C@@H]2C(=O)Nc2ccc(F)c(C(F)(F)F)c2)c1` (stereo partly drawn) [Example 75, (2S,3R,7Z)-3-(5-ethynyl-2-methoxybenzamido)-N-[4-fluoro-3-(trifluoromethyl)phe-nyl]-7-(2,2,2-trifluoroethylidene)bi-cyclo[2.2.1]heptane-2-carboxamide], it took 91 nM to reach a half-maximal effect (EC50).

Turning to `COc1ccc(C[C@H]2C[C@H](O)C2)cc1C(=O)N[C@H]1[C@@H](C(=O)Nc2ccc(F)c(C(F)(F)F)c2)[C@H]2CC[C@@H]1/C2=C\C(F)(F)F` [Example 278, (1R,2S,3R,4R,7Z)-N-[4-fluoro-3-(trifluoromethyl)phenyl]-3-(2-methoxy-5-{[(1r,3s)-3-hydroxycyclobutyl]methyl}benzamido)-7-(2,2,2-trifluoroethylidene) bicyclo[2.2.1]heptane-2-carboxamide], a half-maximal effect (EC50) was put at 32 nM.

`COc1ccc(C(=O)N(C)C(C)(C)C)cc1C(=O)N[C@H]1[C@@H](C(=O)Nc2ccc(F)c(C(F)(F)F)c2)[C@H]2CC[C@@H]1/C2=C\C1CC1` [Example 241, N1-tert-butyl-N3-[(1R,2R,3S,4R,7Z)-7-(cyclopropyl-methylidene)-3-{[4-fluoro-3-(trifluoromethyl)phenyl]carbamoyl}bicyclo[2.2.1]heptan-2-yl]-4-methoxy-N1-methylbenzene-1,3-dicarboxamide] displayed an EC50 of 69.8 nM.

`COc1ccc(S(=O)(=O)N2CCN(C(=O)OC(C)(C)C)[C@H](CO)C2)cc1C(=O)N[C@H]1[C@@H](C(=O)Nc2ccc(F)c(C(F)(F)F)c2)[C@H]2CC[C@@H]1/C2=C\C(F)(F)F` [Example 225, tert-butyl (2S)-4-(3-{[(1R,2R,3S,4R,7Z)-3-{[4-fluoro-3-(trifluoromethyl)phenyl]carbamoyl}-7-(2,2,2-trifluoroethylidene)bicyclo[2.2.1]heptan-2-yl]carbamoyl}-4-methoxy-benzenesulfonyl-2-(hydroxymethyl)piperazine-1-carboxylate] gave an EC50 of 4270 nM.

In turn, `COc1ccc(/C=C/C(=O)N2CC(O)C2)cc1C(=O)N[C@H]1[C@@H](C(=O)Nc2ccc(F)c(C(F)(F)F)c2)[C@H]2CC[C@@H]1/C2=C\C1CC1` [Example 313, (1R,2S,3R,4R,7Z)-7-(cyclopropyl-methylidene)-N-[4-fluoro-3-(trifluoromethyl)phenyl]-3-{5-[(1E)-3-(3-hydroxyazetidin-1-yl)-3-oxoprop-1-en-1-yl]-2-methoxybenzamido} bicyclo[2.2.1]heptane-2-carboxamide] gave an EC50 of 32.9 nM.

`COc1c(F)cc(C(=O)NCC2(S(C)(=O)=O)CC2)cc1C(=O)N[C@H]1[C@@H](C(=O)Nc2ccc(F)c(C(F)(F)F)c2)[C@H]2CC[C@@H]1/C2=C\C(F)(F)F` [Example 368, 5-fluoro-N3-[(1R,2R,3S,4R,7Z)-3-{[4-fluoro-3-(trifluoromethyl)phenyl]carbamoyl}-7-(2,2,2-trifluoroethylidene)bicyclo[2.2.1]heptan-2-yl]-N1-[(1-methanesulfonyl-cyclopropyl)methyl]-4-methoxybenzene-1,3-dicarboxamide] registered an EC50 of 9.1 nM.

Regarding `COc1ccc(C#CCO)cc1C(=O)N[C@@H]1C2CCC(/C2=C/C(F)(F)F)[C@@H]1C(=O)Nc1ccc(F)c(C(F)(F)F)c1` (stereo partly drawn) [Example 68], the midpoint of the response, the EC50, lay at 144 nM.

`COc1ccc(/C=C/C(=O)N2CC3(CC(O)C3)C2)cc1C(=O)N[C@H]1[C@@H](C(=O)Nc2ccc(F)c(C(F)(F)F)c2)[C@H]2CC[C@@H]1/C2=C\C1CC1` [Example 309, (1R,2S,3R,4R,7Z)-7-(cyclopropylmethylidene)-N-[4-fluoro-3-(trifluoromethyl)phenyl]-3-{5-[(1E)-3-{6-hydroxy-2-azaspiro[3.3]heptan-2-yl}-3-oxoprop-1-en-1-yl]-2-methoxybenzamido} bicyclo[2.2.1]heptane-2-carboxamide] gave an EC50 of 17.1 nM.

On to `COc1c(F)cc(C(=O)NCC2(S(C)(=O)=O)CC2)cc1C(=O)N[C@H]1[C@@H](C(=O)N[C@H](C)C2(C)CC2)[C@H]2CC[C@@H]1/C2=C\C1CC1` [Example 369, N3-[(1R,2R,3S,4R,7Z)-7-(cyclopropyl-methylidene)-3-{[(1R)-1-(1-methylcyclopropyl)ethyl]carbamoyl}bicyclo[2.2.1]heptan-2-yl]-5-fluoro-N1-[(1-methanesulfonyl-cyclopropyl)methyl]-4-methoxybenzene-1,3-dicarboxamide], for which the EC50 turned out to be 3 nM.

The compound `COc1ccc(C(=O)NCC(C)(C)C)cc1C(=O)N[C@H]1[C@@H](C(=O)Nc2ccc(F)c(C(F)(F)F)c2)[C@H]2CC[C@@H]1/C2=C\C1CC1` [Example 238, N3-[(1R,2R,3S,4R,7Z)-7-(cyclopropyl-methylidene)-3-{[4-fluoro-3-(trifluoromethyl)phenyl]carbamoyl}bicyclo[2.2.1]heptan-2-yl]-N1-(2,2-dimethylpropyl)-4-methoxybenzene-1,3-dicarboxamide] yielded an EC50 of 14 nM.

For the compound `COc1ccc(CCC(=O)NCCO)cc1C(=O)N[C@@H]1C2CCC(/C2=C/C(F)(F)F)[C@@H]1C(=O)Nc1ccc(F)c(C(F)(F)F)c1` (stereo partly drawn) [Example 137, (2S,3R,7Z)-N-[4-fluoro-3-(trifluoromethyl)phe-nyl]-3-(5-{2-[(2-hydroxyethyl)carba-moyl]ethyl}-2-methoxybenzamido)-7-(2,2,2-trifluoroethylidene)bi-cyclo[2.2.1]heptane-2-carboxamide], it took 400 nM to reach a half-maximal effect (EC50).

In the case of `COc1ccc(COCCC(=O)O)cc1C(=O)N[C@@H]1C2CCC(C2=C(C)C)[C@@H]1C(=O)Nc1ccc(F)c(C(F)(F)F)c1` (stereo partly drawn) [Example 30, 3-[(3-{[(2R,3S)-3-{[4-fluoro-3-(trifluoromethyl)phe-nyl]carbamoyl}-7-(propan-2-ylidene)bicyclo[2.2.1]heptan-2-yl]carbamoyl}-4-methoxyphenyl)meth-oxy]propanoic acid], it took 710 nM to reach a half-maximal effect (EC50).

Consider `COc1ccc(C2CCCC(O)C2)cc1C(=O)N[C@@H]1C2CCC(/C2=C/C(F)(F)F)[C@@H]1C(=O)Nc1ccc(F)c(C(F)(F)F)c1` (single isomer, unassigned) [Example 37], for which the EC50 was 780 nM.

On to `COc1ccc(C(=O)N2CCO[C@@H](CO)C2)cc1C(=O)N[C@H]1[C@@H](C(=O)Nc2ccc(F)c(C(F)(F)F)c2)[C@H]2CC[C@@H]1/C2=C\C1CC1` [Example 231, (1R,2S,3R,4R,7Z)-7-(cyclopropylmethyl-idene)-N-[4-fluoro-3-(trifluoromethyl)phenyl]-3-{5-[(2R)-2-(hydroxymethyl)morpholine-4-carbonyl]-2-methoxybenzamido} bicyclo[2.2.1] heptane-2-carboxamide], for which the EC50 turned out to be 32 nM.
